# Data as given in patent US20250230138A1, “COMPOUNDS HAVING A T-STRUCTURE FORMED BY AT LEAST FOUR CYCLES FOR USE IN THE TREATMENT OF CANCER AND OTHER INDICATIONS” (TheRas, Inc., priority 2022, published 2025).
# Like-named read-outs stand apart in the source and are kept apart here.
# Columns and labels:
# pAKT in BT474 cells = assay: Cell-based pAKT HTRF assay in BT474 cells; settings: BT474 cells, 4 hr incubation, read-out: pAKT inhibition IC50 in BT474 cells
# How it was run: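 The HTRF signal (excitation 320 nm, emission 615 nm) came from d2/Eu Cryptate antibodies added to lysates and incubated 4–24 h at room temperature. Those lysates were taken from cells treated for 4 hr with compound, top concentration 3 μM, in 0.25% DMSO.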
# [1] = target: Cys242 in human PIK3CA (157-299) (Homo sapiens (Human), UniProt P42336); assay: Covalent modification assay using MALDI-TOF MS; format: biochemical; settings: 4 h reaction time point
# How it was run: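 PIK3CA (157-299) at 3.33 μM or 1 μM in 20 mM HEPES, 150 mM NaCl, 2 mM MgCl2, pH 7.3 was incubated with compound (from 10 mM DMSO stocks) in the dark at room temperature for 15 min, 30 min, 2 h or 4 h. Linear-mode MALDI-TOF peak heights gave percent modification.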
# [2] = 3.33 μM protein target, 1:7.5 protein to compound ratio (compounds 1-852)
# [3] = 1 μM protein target, 1:5 protein to compound ratio (compounds 853-1279)
# Sequence of Cys242 in human PIK3CA (157-299) (P42336 157-299): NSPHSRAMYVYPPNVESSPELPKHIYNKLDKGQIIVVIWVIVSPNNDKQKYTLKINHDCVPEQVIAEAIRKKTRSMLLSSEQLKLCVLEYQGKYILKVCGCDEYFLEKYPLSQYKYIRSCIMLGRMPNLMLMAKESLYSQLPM
Compound,"IC50 (pAKT in BT474 cells; Homo sapiens, BT-474, Compounds 10-999)",IC50 (pAKT in BT474 cells; Compounds 10-999),IC50 (pAKT in BT474 cells; Compounds 1000-1279),"% of modification [1, 2]","% of modification [1, 3]"
"C=CC(=O)N1CCn2nc(-c3nc(-c4cnn(C)c4)c4c(c3-c3ccc(F)cc3OC)C(F)CC4)cc2C1 (stereo not shown) [Compound 574, 1-(2-(5-fluoro-4-(4-fluoro-2-methoxyphenyl)-1-(1-methyl-1H-pyrazol-4-yl)-6,7-dihydro-5H-cyclopenta[c]pyridin-3-yl)-6,7-dihydropyrazolo[1,5-a]pyrazin-5(4H)-yl)prop-2-en-1-one]",< 0.1 µM,,,A (percent of modification of PIK3CA protein ≥75%),
"C=CC(=O)N1CCn2nc(-c3nc(-c4ccc([C@H](N(C)C)C(F)(F)F)cc4)c4ccsc4c3-c3c(F)cc(F)cc3OCCOC)cc2[C@H]1C (single isomer, unassigned) [Compound 1150]",,,0.1 to 1 µM,,A (percent of modification of PIK3CA protein ≥75%)
C=CC(=O)N1CCc2ncc(-c3nc(-c4ccc5c(c4)CCNCC5)c4ccsc4c3-c3ccc(F)cc3OC)cc2C1 [Compound 103],,0.1 to 1 µM,,A (percent of modification of PIK3CA protein ≥75%),
C=CC(=O)N1CCn2nc(-c3nc(-c4ccc5c(cnn5C)c4)c4ccsc4c3-c3c(F)cc(F)cc3OCCO)cc2[C@@H]1C [Compound 1166],,,0.1 to 1 µM,,D (percent of modification <25%)
C=CC(=O)N1CCn2nc(-c3nc(-c4cnnc(C5CC5)c4)c4ccsc4c3-c3c(F)cc(F)cc3OCCOC)cc2C1C (stereo not shown) [Compound 1030],,,< 0.1 µM,,A (percent of modification of PIK3CA protein ≥75%)
C=CC(=O)N1CCn2nc(-c3nc(-c4cc5c(cc4OC)C(=O)NC5)c4ccsc4c3-c3c(F)cc(F)cc3OCCO)cc2C1C (stereo not shown) [Compound 1072],,,< 0.1 µM,,A (percent of modification of PIK3CA protein ≥75%)
C=CC(=O)N1CC(n2cc(-c3nc(N4CCC5(CC4)CNC5)c4ccsc4c3-c3ccc(F)cc3OCCOC)cn2)C1 [Compound 98],,1 to 3 µM,,A (percent of modification of PIK3CA protein ≥75%),
CC#CC(=O)N1CCc2nc(-c3nc(-c4ccc5c(c4)CCNC5)c4ccsc4c3-c3ccc(F)cc3OCCOC)sc2C1 [Compound 127],,1 to 3 µM,,D (percent of modification <25%),
C=CC(=O)N1CCc2cc(-c3nc(-c4ccc5cn(C)nc5c4)c4ccsc4c3-c3c(F)cc(F)cc3OCCO)nn2CC1 [Compound 1210],,,< 0.1 µM,,A (percent of modification of PIK3CA protein ≥75%)
C=C(F)C(=O)N1CCn2nc(-c3nc(-c4cnn(C)c4)c4ccsc4c3-c3ccc(F)cc3OC(C)C)cc2C1 [Compound 295],,0.1 to 1 µM,,B (50%<percent of modification <75%),
C=CC(=O)N1CCn2nc(-c3nc(-c4ccc5c(c4)CNC(=O)C54CC4)c4ccsc4c3-c3c(F)cc(F)cc3OCCO)cc2C1C (stereo not shown) [Compound 1119],,,< 0.1 µM,,A (percent of modification of PIK3CA protein ≥75%)
C=CC(=O)N1Cc2cc(-c3nc(-c4ccc5cn(C)nc5c4)c4ccsc4c3-c3c(F)cc(F)cc3OC)nn2C[C@H]1C [Compound 844],,< 0.1 µM,,A (percent of modification of PIK3CA protein ≥75%),
C=CC(=O)N1Cc2cc(-c3nc(-c4ccc5c(c4)CCN(C)C5)c4ccsc4c3-c3c(F)cc(F)cc3OCCO)nn2[C@@H](C)C1 [Compound 565],,< 0.1 µM,,A (percent of modification of PIK3CA protein ≥75%),
"C=CC(=O)N1CCn2nc(-c3nc(-c4cnc5c(c4)CN(C)CC5)c4ccsc4c3-c3c(F)cc(F)cc3OC)cc2[C@H]1C (single isomer, unassigned) [Compound 1147]",,,< 0.1 µM,,A (percent of modification of PIK3CA protein ≥75%)
C=CC(=O)N1CCn2nc(-c3nc(-c4ccc5c(c4)CCN(C)C5)c4ccsc4c3-c3c(F)cc(F)cc3OCCOC)cc2[C@H]1C [Compound 510],,< 0.1 µM,,A (percent of modification of PIK3CA protein ≥75%),
"C=CC(=O)N1CCc2nc(-c3nc(-c4ccc5c(c4)CNC5=O)c4ccsc4c3-c3c(F)cc(F)cc3OC(C)C)sc2C1 (single isomer, unassigned) [Compound 413]",,1 to 3 µM,,D (percent of modification <25%),
C=CC(=O)N1CCn2nc(-c3nc(-c4ccc5c(c4)C(=O)N(C)C5)c4ccsc4c3-c3c(F)cc(F)cc3OCC(C)O)cc2C1C (stereo not shown) [Compound 878],,< 0.1 µM,,,A (percent of modification of PIK3CA protein ≥75%)
C=CC(=O)N1CCc2nc(-c3nc(-c4ccc5c(c4)CCNC5)c4ccsc4c3-c3ccc(F)cc3OCC3CC3)sc2C1 [Compound 161],,< 0.1 µM,,A (percent of modification of PIK3CA protein ≥75%),
C=CC(=O)N1CCc2nc(-c3nc(-c4ccc5c(c4)NC(=O)C5)c4ccsc4c3-c3ccc(F)cc3OCCOC)sc2C1 [Compound 163],,< 0.1 µM,,A (percent of modification of PIK3CA protein ≥75%),
C=CC(=O)N1CCn2nc(-c3nc(-c4ccc5c(c4)CN(C)C(=O)C5)c4ccsc4c3-c3c(F)cc(F)cc3OCCOC)cc2[C@@H]1C [Compound 975],,< 0.1 µM,,,D (percent of modification <25%)

# Further lines, with some results ahead:
"IC50 (pAKT in BT474 cells; Homo sapiens, BT-474, Compounds 10-999)",IC50 (pAKT in BT474 cells; Compounds 10-999),IC50 (pAKT in BT474 cells; Compounds 1000-1279),Compound,"% of modification [1, 2]","% of modification [1, 3]"
,< 0.1 µM,,C=CC(=O)N1Cc2cc(-c3nc(-c4ccc5c(c4)CNC5=O)c4ccsc4c3-c3c(F)cc(F)cc3OCCO)nn2CC1C (stereo not shown) [Compound 904],,A (percent of modification of PIK3CA protein ≥75%)
,< 0.1 µM,,C=CC(=O)N1CCc2ncc(-c3nc(-c4cnc5c(c4)CN(C)CC5)c4ccsc4c3-c3ccc(F)cc3OC(C)C)cc2C1 [Compound 319],A (percent of modification of PIK3CA protein ≥75%),
,< 0.1 µM,,C=CC(=O)N1Cc2cc(-c3nc(-c4ccc5c(c4)CCN(C)C5)c4ccsc4c3-c3c(F)cc(F)cc3OC[C@@H](C)O)nn2[C@@H](C)C1 [Compound 590],A (percent of modification of PIK3CA protein ≥75%),
,< 0.1 µM,,C=CC(=O)N1CCn2nc(-c3nc(-c4ccc5c(c4)C(=O)N(C)C5)c4ccsc4c3-c3c(F)cc(F)cc3OCCOC)cc2[C@H]1C [Compound 846],A (percent of modification of PIK3CA protein ≥75%),
,< 0.1 µM,,C=CC(=O)N1Cc2cc(-c3nc(-c4ccn(C)n4)c4ccsc4c3-c3c(F)cc(F)cc3OCCOC)nn2C[C@H]1C [Compound 722],A (percent of modification of PIK3CA protein ≥75%),
,< 0.1 µM,,C=CC(=O)N1Cc2cc(-c3nc(-c4cnnc(C)c4)c4ccsc4c3-c3c(F)cc(F)cc3OC[C@@H](C)O)nn2C[C@H]1C [Compound 743],A (percent of modification of PIK3CA protein ≥75%),
,< 0.1 µM,,C=CC(=O)N1Cc2cc(-c3nc(-c4cnnc(C)c4)c4ccsc4c3-c3c(F)cc(F)cc3OCC(C)(C)O)nn2[C@@H](C)C1 [Compound 882],,A (percent of modification of PIK3CA protein ≥75%)
,< 0.1 µM,,C=CC(=O)N1CCn2nc(-c3nc(-c4cnn(C)c4)c4ccsc4c3-c3ccc(F)cc3OCC)cc2C1 [Compound 275],A (percent of modification of PIK3CA protein ≥75%),
,< 0.1 µM,,C=CC(=O)N1Cc2cc(-c3nc(-c4cnnc(OCCN(C)C)c4)c4ccsc4c3-c3c(F)cc(F)cc3OCCOC)nn2C[C@H]1C [Compound 884],,A (percent of modification of PIK3CA protein ≥75%)
